The results in this text go back to patent US20080109040A1, “METHOD OF TREATING ARRHYTHMIAS” (priority 2002, published 2008).

Assay [1] has as its target T1, slowly activating component of the delayed rectifier current (IKs) (Canis lupus familiaris, UniProt A0A8I3N8W8).
T1 construct: Myocytes were isolated by enzymatic dissociation from a wedge-shaped section of the left ventricular free wall; endogenous in cells; host or cells: isolated canine left ventricular myocytes
T1 sequence (A0A8I3N8W8 1-676): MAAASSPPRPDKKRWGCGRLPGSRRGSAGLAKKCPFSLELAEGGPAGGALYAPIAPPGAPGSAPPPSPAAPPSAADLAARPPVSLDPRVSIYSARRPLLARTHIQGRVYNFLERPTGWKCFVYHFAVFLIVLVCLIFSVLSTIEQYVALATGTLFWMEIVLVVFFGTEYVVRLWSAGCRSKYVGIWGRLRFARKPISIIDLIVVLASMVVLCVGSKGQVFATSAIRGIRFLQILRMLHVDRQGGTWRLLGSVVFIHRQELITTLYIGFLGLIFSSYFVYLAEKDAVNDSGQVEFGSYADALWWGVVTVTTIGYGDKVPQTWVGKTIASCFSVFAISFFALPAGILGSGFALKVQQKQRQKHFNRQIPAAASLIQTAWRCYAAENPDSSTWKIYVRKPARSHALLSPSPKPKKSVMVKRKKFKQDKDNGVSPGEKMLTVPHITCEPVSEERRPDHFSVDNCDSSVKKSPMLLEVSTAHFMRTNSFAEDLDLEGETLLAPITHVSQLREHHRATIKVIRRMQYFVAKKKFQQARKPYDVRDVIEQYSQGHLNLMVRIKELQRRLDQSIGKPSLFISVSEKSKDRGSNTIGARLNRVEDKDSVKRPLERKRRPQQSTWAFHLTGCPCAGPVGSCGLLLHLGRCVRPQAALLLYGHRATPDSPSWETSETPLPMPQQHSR
Nature of the assay: Whole cell voltage clamp of IKs tail current in isolated canine left ventricular myocytes. The format is cell-based. As for the experimental part: Myocytes were isolated by enzymatic dissociation from a wedge-shaped section of the left ventricular free wall supplied by the left circumflex coronary artery. Cells from the epicardial and midmyocardial regions of the left ventricle were used in this study.
Inward rectifier potassium current (IK), slow delayed rectifier potassium current (IKs), and rapid delayed rectifier potassium current (IKr) were recorded at 37° C. using conventional whole cell voltage clamp configuration.
IK1 was measured using an external solution containing 3 μM ouabain and 5 μM nifedipine to block the sodium-potassium pump and L-type calcium current (ICa,L), respectively. […] 5 μM nifedipine was present in the external solution when IKr was being recorded.
Isolated myocytes were placed in a temperature controlled 0.5 ml chamber (Medical Systems, Greenvale, N.Y.) on the stage of an inverted microscope and superfused at a rate of 2 ml/min. An eight-barrel quartz micromanifold (ALA Scientific Instruments Inc., Westbury, N.Y.) placed 100 μm from the cell was used to apply ranolazine at concentrations of (in μM): 0.1, 0.5, 1.0, 5.0, 10 and 100.0. An Axopatch 1D amplifier (Axon Instruments, Foster City, Calif.) was operated in voltage clamp mode to record currents. […]

The next assay deals with late INa (Canis lupus familiaris, UniProt Q865W3). Briefly: Late INa during action potential voltage clamp in canine midmyocardial myocytes. The format is cell-based.
Chain of late INa (Q865W3 1-2013): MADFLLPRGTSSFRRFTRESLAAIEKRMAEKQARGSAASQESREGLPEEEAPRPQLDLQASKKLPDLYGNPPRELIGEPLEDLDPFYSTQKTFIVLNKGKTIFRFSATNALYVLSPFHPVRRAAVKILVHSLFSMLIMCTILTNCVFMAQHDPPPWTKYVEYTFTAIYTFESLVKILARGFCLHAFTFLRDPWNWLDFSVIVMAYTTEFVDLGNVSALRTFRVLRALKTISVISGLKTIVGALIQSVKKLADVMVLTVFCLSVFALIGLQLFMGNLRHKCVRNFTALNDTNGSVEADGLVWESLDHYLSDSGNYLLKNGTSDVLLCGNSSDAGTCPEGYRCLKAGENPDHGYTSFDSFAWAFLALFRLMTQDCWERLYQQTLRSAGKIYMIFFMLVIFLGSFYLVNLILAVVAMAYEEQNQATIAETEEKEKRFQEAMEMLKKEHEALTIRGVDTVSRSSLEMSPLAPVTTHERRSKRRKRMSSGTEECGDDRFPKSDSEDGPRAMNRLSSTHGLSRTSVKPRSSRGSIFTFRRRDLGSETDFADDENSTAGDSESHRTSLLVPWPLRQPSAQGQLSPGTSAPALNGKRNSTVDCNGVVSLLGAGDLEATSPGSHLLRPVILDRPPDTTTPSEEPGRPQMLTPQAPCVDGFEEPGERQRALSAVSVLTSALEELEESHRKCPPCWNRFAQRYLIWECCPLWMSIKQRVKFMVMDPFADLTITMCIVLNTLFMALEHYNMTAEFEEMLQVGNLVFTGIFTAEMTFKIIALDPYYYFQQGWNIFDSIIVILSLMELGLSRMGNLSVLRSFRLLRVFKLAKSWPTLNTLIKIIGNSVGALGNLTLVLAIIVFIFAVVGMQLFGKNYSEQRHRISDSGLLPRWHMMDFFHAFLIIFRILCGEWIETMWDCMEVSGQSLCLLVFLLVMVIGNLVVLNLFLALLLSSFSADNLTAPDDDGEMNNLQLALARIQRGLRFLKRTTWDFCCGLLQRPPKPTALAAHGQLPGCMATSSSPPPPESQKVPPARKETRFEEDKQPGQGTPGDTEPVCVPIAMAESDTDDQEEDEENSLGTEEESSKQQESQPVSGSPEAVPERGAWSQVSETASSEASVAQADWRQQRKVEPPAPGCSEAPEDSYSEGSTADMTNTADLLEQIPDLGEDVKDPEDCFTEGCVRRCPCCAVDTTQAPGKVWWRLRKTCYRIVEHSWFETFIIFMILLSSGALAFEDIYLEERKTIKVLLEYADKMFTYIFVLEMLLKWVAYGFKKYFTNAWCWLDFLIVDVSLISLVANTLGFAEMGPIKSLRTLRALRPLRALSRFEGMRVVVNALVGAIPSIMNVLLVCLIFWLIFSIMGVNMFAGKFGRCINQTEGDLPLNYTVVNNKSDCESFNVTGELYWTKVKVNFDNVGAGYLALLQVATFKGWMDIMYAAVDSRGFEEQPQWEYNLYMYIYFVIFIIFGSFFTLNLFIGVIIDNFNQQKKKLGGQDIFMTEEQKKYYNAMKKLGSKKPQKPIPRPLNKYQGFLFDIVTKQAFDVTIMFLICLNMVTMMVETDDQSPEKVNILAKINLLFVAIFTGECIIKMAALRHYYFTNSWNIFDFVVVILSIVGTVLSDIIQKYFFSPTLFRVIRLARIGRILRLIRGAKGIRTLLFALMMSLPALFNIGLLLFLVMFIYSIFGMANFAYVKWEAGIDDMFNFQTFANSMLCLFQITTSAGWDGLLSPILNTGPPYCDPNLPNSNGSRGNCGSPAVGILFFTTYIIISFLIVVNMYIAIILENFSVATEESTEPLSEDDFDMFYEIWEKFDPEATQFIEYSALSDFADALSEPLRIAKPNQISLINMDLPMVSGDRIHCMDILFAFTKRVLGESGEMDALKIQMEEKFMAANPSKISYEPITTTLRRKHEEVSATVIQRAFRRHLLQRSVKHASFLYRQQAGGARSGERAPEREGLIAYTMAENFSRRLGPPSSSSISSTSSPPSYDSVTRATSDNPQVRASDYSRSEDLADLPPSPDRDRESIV

“Also recorded” adds a separate entry of the source. Where two headings read alike, the source gives them in different places.

`COc1ccccc1OCC(O)CN1CCN(CC(=O)Nc2c(C)cccc2C)CC1` (racemic) [ranolazine, N-(2,6-dimethylphenyl)-4-[2-hydroxy-3-(2-methoxyphenoxy)propyl]-1-piperazineacetamide]: in assay [1] (ranolazine 100 μM, reversed on washout), the “Block of IKs tail current” value is listed as “largely eliminated the tail current; also recorded: almost completely blocked”. Further, the IC50 in assay [1] (read-out: IC50 for inhibition of IKs tail current) was determined as 13.4 µM; on late INa (BCL 2000 ms, first value (plateau, 20 mV), read-out: Half-inhibition of late INa), 5.9 µM; on late INa (BCL 2000 ms, second value (−28 mV), read-out: Half-inhibition of late INa) it was 20.8 µM; at late INa (basic cycle length 300 ms, read-out: Half-inhibition of INa,late), 11.5 µM; at late INa (basic cycle length 2000 ms, read-out: Half-inhibition of INa,late), 20.8 µM.
